Assay results taken from US20080233562A1, “Method of Estimating Antitumor Effect of Histone Deacetylase Inhibitor” (Astellas Pharma Inc., priority 2003, published 2008).

Experiments:
[1] = tested on: human prostate cancer PC-3; test: Antitumor effect on human prostate cancer PC-3 tumor fragment implanted s.c. in nude mice; format: in vivo
Experimental: A necessary amount of FK228 was weighed and a solvent (10% HCO-60/saline) was added. The mixture was sonicated to allow for dissolution. A positive control substance Paclitaxel was dissolved in Cremophor EL/ethanol (1:1) solution to 24 mg/mL prior to the testing, and preserved in a refrigerator. When in use, it was diluted with a 9-fold amount of physiological saline to 2.4 mg/mL (solvent component: 5% Cremophor EL-5% ethanol-90% saline).
(§3) For antitumor test of the pharmaceutical agent, BALB/cANnNCrj-nu/nu mice (male, 6-week-old) were purchased from Charles River Japan and, after acclimation for not less than one week, used for the test. The mice were reared under an SPF environment and allowed a free access to water and feed.
A grown solid tumor was subcultured for not less than 3 generations and used for the test.
(§4) A solid tumor subcultured in a nude mouse was subcutaneously implanted in the right back of a mouse as an about 3 mm square tumor tissue fragment. […]
(§5) The administration was started on the day of grouping (Day 0). […] The amount of liquid for each administration was calculated (0.1 mL/10 g body weight) based on the body weight measured on the administration day.
(§6) The tumor size (longer diameter, shorter diameter) and body weight were measured twice a week from Day 0.
(§7) The level of tumor growth was evaluated based on the tumor growth rate (Relative Tumor Volume). […]

human kidney cancer ACHN = test: Antitumor effect on human kidney cancer ACHN tumor fragment implanted s.c. in nude mice; format: in vivo
Experimental: A necessary amount of FK228 was weighed and a solvent (10% HCO-60/saline) was added. The mixture was sonicated to allow for dissolution.
as §3
Cultured human kidney cancer cell line 1 (ACHN: available from ATCC) and human culture prostate cancer cell line 1 (PC-3: available from ATCC) were subcutaneously implanted at 2-3×10^7 cells in a nude mouse. A grown solid tumor was subcultured for not less than 3 generations and used for the test.
as §4, §5, §6, §7

[2] = tested on: human stomach cancer SC-6; test: Antitumor effect on human stomach cancer SC-6 tumor fragment implanted s.c. in nude mice; format: in vivo; settings: SC-6 s.c. in nude mice, 3.2 mg/kg i.v.
Source text: (§1) A solid tumor subcultured in a nude mouse was subcutaneously implanted in the right back of a mouse as an about 3 mm square tumor tissue fragment. After the tumor implantation, when the tumor volume (½×longer diameter×shorter diameter^2) reached 100-300 mm^3, the mice were grouped into 6 mice per group to level the tumor size.
human gastric cancer SC-6; obtained from Central Institute for Experimental Animals (tumor fragment 3 mm×3 mm×3 mm/mouse implantation site s.c.)
(§2) By the method shown in Example 1, 3 mm square tumor fragments (human prostate cancer PC-3, human stomach cancer SC-6, human kidney cancer ACHN and human kidney cancer A498) were subcutaneously implanted in nude mice, and when the tumor volume (long diameter 9 mm, short diameter 8 mm) reached about 100-300 mm^3, FK228 (3.2 mg/kg) was intravenously administered. The tumor growth suppressing rates then were 98%, 84%, 20% and 29%, respectively.

human kidney cancer A498 = test: Antitumor effect on human kidney cancer A498 tumor fragment implanted s.c. in nude mice; format: in vivo; settings: 3.2 mg/kg i.v.
Source text: as §1
human kidney cancer A498; obtained from ATCC (tumor fragment 3 mm×3 mm×3 mm/mouse implantation site s.c.)
as §2

[3] = Maximum tolerated dose, intravenous administration to nude mice; settings: mouse, in vivo, i.v.
Experimental: The administration was started on the day of grouping (Day 0). FK228 was intravenously administered to an FK228 administration group 3 times every 4 days (q4d×3) (3.2 and 1.8 mg/kg). Paclitaxel (24 mg/kg) was intravenously administered for 5 consecutive days (qd×5) to a positive control substance Paclitaxel administration group. Only a solvent (10% HCO-60/saline) was administered (q4d×3) to a control group. The amount of liquid for each administration was calculated (0.1 mL/10 g body weight) based on the body weight measured on the administration day. Note that 3.2 mg/kg/day (q4d×3) of FK228 and 24 mg/kg/day (qd×5) of Paclitaxel were the maximum tolerated doses (MTD) thereof.

Row | Structure (SMILES) | antitumor action (tumor growth rate, Relative Tumor Volume) ([1]; PC-3 in nude mice, FK228 3.2 mg/kg i.v. q4d×3, FIG. 1(a)) | tumor growth suppressing rate ([1]; PC-3 s.c. in nude mice, 3.2 mg/kg i.v.) [%] | antitumor action (tumor growth rate, Relative Tumor Volume) (human kidney cancer ACHN; ACHN in nude mice, FK228 i.v. q4d×3, FIG. 1(b)) | tumor growth suppressing rate (human kidney cancer ACHN; ACHN s.c. in nude mice, 3.2 mg/kg i.v.) [%] | tumor growth suppressing rate [2] [%] | tumor growth suppressing rate (human kidney cancer A498) [%] | MTD ([3]; q4d×3, nude mice) [mg/kg/day] | MTD at 5 days ([3]; 24 mg/kg, qd×5, nude mice) [mg/kg/day]
1 | C/C=C1\NC(=O)[C@H]2CSSCC/C=C/[C@H](CC(=O)N[C@H](C(C)C)C(=O)N2)OC(=O)[C@H](C(C)C)NC1=O [FK228] | strong antitumor action | 98 | did not show an antitumor action | 20 | 84 | 29 | 3.2 | –
2 | CC(=O)O[C@H]1C(=O)[C@@]2(C)[C@H]([C@H](OC(=O)c3ccccc3)[C@]3(O)C[C@H](OC(=O)[C@H](O)[C@@H](NC(=O)c4ccccc4)c4ccccc4)C(C)=C1C3(C)C)[C@]1(OC(C)=O)CO[C@@H]1C[C@@H]2O [Paclitaxel, reference compound] | – | – | – | – | – | – | – | 24
